Earlier results in patent publication US6497890B2, “Anti-wrinkle preparation and method of reducing wrinkles in facial skin and neck” (priority 1996, dated 2002).

Legend:
[1] = tested on: rheumatoid arthritis patients; settings: for EFFICACY (estimated rate) / TOXICITY (estimated rate): remittive agents in RA
[2] = commonly prescribed NSAIDS

Row | Half Life [2] | Structure (SMILES) | EFFICACY (estimated rate) [1] | TOXICITY (estimated rate) [1] | onset of action ([1]; RA patients, mostly)
1 | 1.5 h | O=C(O)Cc1ccccc1Nc1c(Cl)cccc1Cl [Diclofenac] | – | – | –
2 | 3 to 11 h | COc1ccc2c(c1)c(CC(=O)O)c(C)n2C(=O)c1ccc(Cl)cc1 [Indomethacin] | – | – | –
3 | 2 to 3 h | Cc1ccc(Cl)c(Nc2ccccc2C(=O)O)c1Cl [Meclofenamate] | – | – | –
4 | 16 h | CC1=C(CC(=O)O)c2cc(F)ccc2/C1=C\c1ccc([S+](C)[O-])cc1 (centres unmarked) [Sulindac] | – | – | –
5 | 1 to 2 h | Cc1ccc(C(=O)c2ccc(CC(=O)O)n2C)cc1 [Tolmetin] | – | – | –

Continued, molecule first:

Row | Structure (SMILES) | Half Life [2] | EFFICACY (estimated rate) [1] | TOXICITY (estimated rate) [1] | onset of action ([1]; RA patients, mostly)
6 | CC(=O)OC[C@H]1O[C@@H]([S-])[C@H](OC(C)=O)[C@@H](OC(C)=O)[C@@H]1OC(C)=O.CCP(CC)CC.[Au+] [Auranofin] | – | Intermediate | Intermediate | –
7 | Cn1cnc([N+](=O)[O-])c1Sc1ncnc2nc[nH]c12 [Azathioprine] | – | Intermediate | High | –
8 | O=P1(N(CCCl)CCCl)NCCCO1 (centres unmarked) [Cyclophosphamide] | – | High | High | –
9 | CC(C(=O)O)c1cccc(Oc2ccccc2)c1 (centres unmarked) [Fenoprofen] | 2 h | – | – | –
10 | CCN(CCO)CCCC(C)Nc1ccnc2cc(Cl)ccc12 (centres unmarked) [Hydroxychloroquine] | – | Intermediate | Low | –
11 | CN(Cc1cnc2nc(N)nc(N)c2n1)c1ccc(C(=O)N[C@@H](CCC(=O)O)C(=O)O)cc1 [Methotrexate] | – | High | Intermediate | ≤ 1 month
12 | O=C(O)CCc1nc(-c2ccccc2)c(-c2ccccc2)o1 [Oxaprozin] | 40 h | – | – | –
13 | CC(C)(S)[C@@H](N)C(=O)O [Penicillamine] | – | Intermediate | High | –
14 | CN1C(C(=O)Nc2ccccn2)=C(O)c2ccccc2S1(=O)=O [Piroxicam] | 30 to 86 h | – | – | –
15 | O=C(O)c1cc(/N=N/c2ccc(S(=O)(=O)Nc3ccccn3)cc2)ccc1O [Sulfasalazine] | – | Intermediate | Intermediate | –
